Like-named read-outs stand apart in the source and are kept apart here.
Tested on: HT-1080 (ATCC, CCL-121) cells
Test: HT-1080 cell viability assay with ferroptosis inducer RSL3 (Cell Titer-Glo)
Assay type: cell-based
Conditions: HT-1080 cells treated with RSL3, 3-fold, 10-point dilution, 1.1 μM highest concentration, Table 3, read-out: EC50 (nM), ferroptosis inhibitory activity
Procedure, shortened: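 EC50 was derived by sigmoidal dose-response regression of CellTiter-Glo luminescence viability, expressed relative to untreated wells. Compounds were tested in a ten-point, threefold dilution series (highest 1.1 μM) in the presence of the ferroptosis inducer RSL3. HT-1080 cells had been seeded at 6000 per well and grown overnight first.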

| Compound | EC50 (Homo sapiens) [nM] | EC50 [nM] |
| --- | --- | --- |
| CC1CCN(c2ccc(Nc3ccc4c(c3)OCC(=O)N4)cc2)CC1 [Compound 507, 7-((4-(4-methylpiperidin-1-yl)phenyl)amino)-2H-benzo[b][1,4]oxazin-3(4H)-one] | 0.1 to 100 |  |
| O=C1COc2cc(Nc3ccc(N4CCC(F)CC4)cc3)ccc2N1 [Compound 508, 7-((4-(4-fluoropiperidin-1-yl)phenyl)amino)-2H-benzo[b][1,4]oxazin-3(4H)-one] | 0.1 to 100 |  |
| Cc1cc(N2CCC(O)(C(F)(F)F)CC2)ccc1Nc1ccc2c(c1)OCC(=O)N2 [Compound 509, 7-((4-(4-hydroxy-4-(trifluoromethyl)piperidin-1-yl)-2-methylphenyl)amino)-2H-benzo[b][1,4]oxazin-3(4H)-one] | 0.1 to 100 |  |
| O=C1COc2cc(Nc3ccc(N4CCC(O)(C(F)(F)F)CC4)cc3)ccc2N1 [Compound 510, 7-((4-(4-hydroxy-4-(trifluoromethyl)piperidin-1-yl)phenyl)amino)-2H-benzo[b][1,4]oxazin-3(4H)-one] | 0.1 to 100 |  |
| Cc1cc(N2CCC(O)(C(F)(F)F)CC2)ccc1Nc1cc(C)c2c(c1)OCC(=O)N2 [Compound 511, 7-((4-(4-hydroxy-4-(trifluoromethyl)piperidin-1-yl)-2-methylphenyl)amino)-5-methyl-2H-benzo[b][1,4]oxazin-3(4H)-one] | 0.1 to 100 |  |
| Cc1cc(N2CCC(C(F)(F)F)CC2)ccc1Nc1cc2c(cc1C)NC(=O)CO2 [Compound 512, 6-methyl-7-((2-methyl-4-(4-(trifluoromethyl)piperidin-1-yl)phenyl)amino)-2H-benzo[b][1,4]oxazin-3(4H)-one] | 0.1 to 100 |  |
| Cc1cc(N2CCC(C(F)(F)F)CC2)ccc1Nc1ccc2[nH]c(=O)[nH]c2c1 [Compound 513, 5-((2-methyl-4-(4-(trifluoromethyl)piperidin-1-yl)phenyl)amino)-1,3-dihydro-2H-benzo[d]imidazol-2-one] | 0.1 to 100 |  |
| Cc1cc(N2CCC(C(F)(F)F)CC2)ccc1Nc1ccc2c(c1)C(C)(C)C(=O)N2 [Compound 514, 3,3-dimethyl-5-((2-methyl-4-(4-(trifluoromethyl)piperidin-1-yl)phenyl)amino)indolin-2-one] | 0.1 to 100 |  |
| Cc1cc(N2CCC(C(F)(F)F)CC2)ccc1Nc1ccc2c(c1)OCC(=O)N2 [Compound 515, 7-((2-methyl-4-(4-(trifluoromethyl)piperidin-1-yl)phenyl)amino)-2H-benzo[b][1,4]oxazin-3(4H)-one] |  | 0.1 to 100 |
| COc1cc(N2CCC(C(F)(F)F)CC2)ccc1Nc1ccc2c(c1)OCC(=O)N2 [Compound 516, 7-((2-methoxy-4-(4-(trifluoromethyl)piperidin-1-yl)phenyl)amino)-2H-benzo[b][1,4]oxazin-3(4H)-one] | 0.1 to 100 |  |
| O=C1COc2cc(Nc3ccc(N4CCCCC4)cc3)ccc2N1 [Compound 517, 7-(4-(piperidin-1-yl)phenylamino)-2H-benzo[b][1,4]oxazin-3(4H)-one] | 0.1 to 100 |  |
| Cc1cc(N2CCC(F)CC2)ccc1Nc1ccc2c(c1)OCC(=O)N2 [Compound 518, 7-((4-(4-fluoropiperidin-1-yl)-2-methylphenyl)amino)-2H-benzo[b][1,4]oxazin-3(4H)-one] | 0.1 to 100 |  |
| Cc1cc(N2CC(C)N(CC(F)(F)F)C(C)C2)ccc1Nc1ccc2c(c1)OCC(=O)N2 (stereo not shown) [Compound 519, 7-((4-(3,5-dimethyl-4-(2,2,2-trifluoroethyl)piperazin-1-yl)-2-methylphenyl)amino)-2H-benzo[b][1,4]oxazin-3(4H)-one] | 0.1 to 100 |  |
| Cc1nc(N2CC(C)OC(C)(C)C2)ccc1Nc1ccc2c(c1)OCC(=O)N2 (stereo not shown) [Compound 520, 7-((2-methyl-6-(2,2,6-trimethylmorpholino)pyridin-3-yl)amino)-2H-benzo[b][1,4]oxazin-3(4H)-one] | 0.1 to 100 |  |
| Cc1nc(N2CCN(CC(F)(F)F)CC2)ccc1Nc1ccc2c(c1)OCC(=O)N2 [Compound 521, 7-((2-methyl-6-(4-(2,2,2-trifluoroethyl)piperazin-1-yl)pyridin-3-yl)amino)-2H-benzo[b][1,4]oxazin-3(4H)-one] | 0.1 to 100 |  |
| CCc1nc(N2C[C@@H](C)O[C@@H](C)C2)ccc1Nc1ccc2c(c1)OCC(=O)N2 [Compound 522, 7-((6-((2S,6R)-2,6-dimethylmorpholino)-2-ethylpyridin-3-yl)amino)-2H-benzo[b][1,4]oxazin-3(4H)-one] | 0.1 to 100 |  |
| O=C1COc2cc(Nc3ccc(N4CCC(F)(F)CC4)cc3)ccc2N1 [Compound 524, 7-((4-(4,4-difluoropiperidin-1-yl)phenyl)amino)-2H-benzo[b][1,4]oxazin-3(4H)-one] | 0.1 to 100 |  |
| Cc1cc(N2CCC(F)(F)CC2)ccc1Nc1ccc2c(c1)OCC(=O)N2 [Compound 525, 7-((4-(4,4-difluoropiperidin-1-yl)-2-methylphenyl)amino)-2H-benzo[b][1,4]oxazin-3(4H)-one] | 0.1 to 100 |  |
| Cc1cc(N2CCC(C(F)(F)F)CC2)ccc1Nc1ccc2[nH]c(N)nc2c1 [Compound 526, N5-(2-methyl-4-(4-(trifluoromethyl)piperidin-1-yl)phenyl)-1H-benzo[d]imidazole-2,5-diamine] | 0.1 to 100 |  |

| Compound | EC50 (Homo sapiens) [nM] | EC50 [nM] |
| --- | --- | --- |
| Cc1cc(N2CCC(C(F)(F)F)CC2)ccc1Nc1ccc2c(c1)NC(=O)C2(C)C [Compound 527, 3,3-dimethyl-6-((2-methyl-4-(4-(trifluoromethyl)piperidin-1-yl)phenyl)amino)indolin-2-one] | 0.1 to 100 |  |
| Cc1cc(N2CC(C)OC(C)C2)ccc1Nc1ccc2c(c1)CCNC2 (stereo not shown) [Compound 528, N-(4-(2,6-dimethylmorpholino)-2-methylphenyl)-1,2,3,4-tetrahydroisoquinolin-6-amine] | 0.1 to 100 |  |
| Cc1cc(N2CCOC(C)C2)ccc1Nc1ccc2c(c1)CCNC2 (stereo not shown) [Compound 529, N-(2-methyl-4-(2-methylmorpholino)phenyl)-1,2,3,4-tetrahydroisoquinolin-6-amine] | 0.1 to 100 |  |
| Cc1cc(N2CCC(C(F)(F)F)CC2)ccc1Nc1ccc2c(c1)OCCNC2=O [Compound 531, 8-((2-methyl-4-(4-(trifluoromethyl)piperidin-1-yl)phenyl)amino)-3,4-dihydrobenzo[f][1,4]oxazepin-5(2H)-one] | 0.1 to 100 |  |
| CN1C(=O)COc2cc(N(C)c3ccc(N4CCC(C(F)(F)F)CC4)cc3)ccc21 [Compound 532, 4-methyl-7-(methyl(4-(4-(trifluoromethyl)piperidin-1-yl)phenyl)amino)-2H-benzo[b][1,4]oxazin-3(4H)-one] | 100 to 1000 |  |
| Cc1cc(N2CCC(C(F)(F)F)CC2)ccc1Nc1ccc2c(c1)OCCC(=O)N2 [Compound 533] | 0.1 to 100 |  |
| O=C1CCOc2cc(Nc3ccc(N4CCC(C(F)(F)F)CC4)cc3)ccc2N1 [Compound 534, 8-((4-(4-(trifluoromethyl)piperidin-1-yl)phenyl)amino)-2,3-dihydrobenzo[b][1,4]oxazepin-4(5H)-one] | 0.1 to 100 |  |
| Cc1cc(N2CCC(C(F)(F)F)CC2)ccc1Nc1ccc2c(c1)CNC(=O)N2 [Compound 535, 6-((2-methyl-4-(4-(trifluoromethyl)piperidin-1-yl)phenyl)amino)-3,4-dihydroquinazolin-2(1H)-one] | 0.1 to 100 |  |
| Cc1cc(N2CC(C)OC(C)C2)ccc1Nc1ccc2c(c1)nc(N)n2C (stereo not shown) [Compound 536, 5-N-[4-(2,6-dimethylmorpholin-4-yl)-2-methylphenyl]-1-methyl-1,3-benzodiazole-2,5-diamine] | 0.1 to 100 |  |
| Cc1c(Nc2ccc3c(c2)OCC(=O)N3)ccc(N2CCC(C(F)(F)F)CC2)c1C#N [Compound 537, 2-methyl-3-((3-oxo-3,4-dihydro-2H-benzo[b][1,4]oxazin-7-yl)amino)-6-(4-(trifluoromethyl)piperidin-1-yl)benzonitrile] | 0.1 to 100 |  |
| Cc1cc(N2CCC(C(F)(F)F)CC2)ccc1Nc1ccc2c(c1)COC(=O)N2 [Compound 539, 6-((2-methyl-4-(4-(trifluoromethyl)piperidin-1-yl)phenyl)amino)-1,4-dihydro-2H-benzo[d][1,3]oxazin-2-one] | 0.1 to 100 |  |
| CC1(O)CCN(c2ccc(Nc3ccc4c(c3)OCC(=O)N4)cc2)CC1 [Compound 540, 7-((4-(4-hydroxy-4-methylpiperidin-1-yl)phenyl)amino)-2H-benzo[b][1,4]oxazin-3(4H)-one] | 100 to 1000 |  |
| Cc1cc(N2CCC(C)(O)CC2)ccc1Nc1ccc2c(c1)OCC(=O)N2 [Compound 541, 7-((4-(4-hydroxy-4-methylpiperidin-1-yl)-2-methylphenyl)amino)-2H-benzo[b][1,4]oxazin-3(4H)-on] | 100 to 1000 |  |
| Cc1cc(N2CCC(C(C)(C)O)CC2)ccc1Nc1ccc2c(c1)OCC(=O)N2 [Compound 542, 7-((4-(4-(2-hydroxypropan-2-yl)piperidin-1-yl)-2-methylphenyl)amino)-2H-benzo[b][1,4]oxazin-3(4H)-one] | 0.1 to 100 |  |
| CC(C)(O)C1CCN(c2ccc(Nc3ccc4c(c3)OCC(=O)N4)cc2)CC1 [Compound 543, 7-((4-(4-(2-hydroxypropan-2-yl)piperidin-1-yl)phenyl)amino)-2H-benzo[b][1,4]oxazin-3(4H)-on] | 0.1 to 100 |  |
| Cc1cc(N2CCC(C(F)(F)F)CC2)ccc1Nc1ccc2c(c1)CNC2 [Compound 544, N-(2-methyl-4-(4-(trifluoromethyl)piperidin-1-yl)phenyl)isoindolin-5-amine] |  | 0.1 to 100 |
| Cc1cc(N2CCC(C(F)(F)F)CC2)ccc1Nc1ccc2c(c1)CN(C(N)=O)C2 [Compound 545, 5-((2-methyl-4-(4-(trifluoromethyl)piperidin-1-yl)phenyl)amino) isoindoline-2-carboxamide] | 0.1 to 100 |  |
| COc1cc(Nc2ccc3c(c2)OCC(=O)N3)c(C)cc1N1CCC(C(F)(F)F)CC1 [Compound 546, 7-((5-methoxy-2-methyl-4-(4-(trifluoromethyl)piperidin-1-yl)phenyl)amino)-2H-benzo[b][1,4]oxazin-3(4H)-one] | 0.1 to 100 |  |

From patent US20240327393A1 (SIRONAX LTD., priority 2021, published 2024)
